Measurements: patent publication US12503438B2, “Compounds for the treatment of kinase-dependent disorders” (Exelixis, Inc., priority 2019, dated 2025)

How the values were obtained:
[1] = molecular target: KDR (Homo sapiens, UniProt P35968); experiment: KDR autophosphorylation ELISA in HUVEC cells; assay type: cell-based; set-up: endogenous in cells; host or cells: HUVEC (Lonza #C2519A); settings: cellular activity, VEGF165-stimulated, phospho-KDR ELISA
Procedure, shortened: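 HUVECs grown 24 h at 37 °C, then serum-starved 24 h, were preincubated 1 h with an 8-point compound series (0.3% DMSO) and stimulated with 100 ng/mL human VEGF165 for 5 min. Phospho-KDR in lysates was measured by sandwich ELISA against a phospho-KDR standard; IC50 from 4-parameter logistic fit.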

[2] = molecular target: T1, AXL (Homo sapiens, UniProt P30530); experiment: AXL autophosphorylation ELISA in A-172 cells; assay type: cell-based; settings: cellular activity, Gas6-stimulated, phospho-AXL ELISA
T1 construct: endogenous in cells; host or cells: A-172 glioblastoma cells (ATCC #CRL-1620)
T1 sequence (P30530 26-894): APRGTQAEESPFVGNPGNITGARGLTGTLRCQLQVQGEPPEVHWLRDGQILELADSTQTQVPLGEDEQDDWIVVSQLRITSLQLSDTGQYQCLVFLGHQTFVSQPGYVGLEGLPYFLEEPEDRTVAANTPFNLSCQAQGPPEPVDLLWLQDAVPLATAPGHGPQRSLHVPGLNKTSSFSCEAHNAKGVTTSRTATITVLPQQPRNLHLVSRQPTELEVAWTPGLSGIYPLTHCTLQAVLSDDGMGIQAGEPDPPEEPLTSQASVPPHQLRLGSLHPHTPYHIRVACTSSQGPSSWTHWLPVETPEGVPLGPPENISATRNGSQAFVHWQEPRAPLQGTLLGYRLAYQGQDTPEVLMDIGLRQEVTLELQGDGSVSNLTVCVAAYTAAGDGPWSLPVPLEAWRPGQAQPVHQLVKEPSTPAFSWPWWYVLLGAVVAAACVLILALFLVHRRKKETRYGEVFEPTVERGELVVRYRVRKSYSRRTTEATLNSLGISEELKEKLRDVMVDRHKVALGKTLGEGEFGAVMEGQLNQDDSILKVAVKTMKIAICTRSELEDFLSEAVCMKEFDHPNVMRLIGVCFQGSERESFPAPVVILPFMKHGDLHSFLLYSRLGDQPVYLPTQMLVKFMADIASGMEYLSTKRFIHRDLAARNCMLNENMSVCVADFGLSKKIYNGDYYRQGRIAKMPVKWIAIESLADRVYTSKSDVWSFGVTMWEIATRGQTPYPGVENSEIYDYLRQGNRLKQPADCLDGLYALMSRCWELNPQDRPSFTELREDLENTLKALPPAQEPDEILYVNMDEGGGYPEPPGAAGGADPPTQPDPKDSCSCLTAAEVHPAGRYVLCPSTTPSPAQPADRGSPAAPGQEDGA
Procedure, shortened: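 Serum-starved (24 h) A-172 glioblastoma cells got an 8-point compound series (0.3% DMSO) for 1 h, then 1 μg/mL human Gas6 for 15 min. Lysate phospho-AXL quantified by ELISA against phospho-AXL standard, normalized to DMSO and reference-inhibitor controls; IC50 by 4-parameter logistic fit.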

Chain of KDR (P35968 20-1356): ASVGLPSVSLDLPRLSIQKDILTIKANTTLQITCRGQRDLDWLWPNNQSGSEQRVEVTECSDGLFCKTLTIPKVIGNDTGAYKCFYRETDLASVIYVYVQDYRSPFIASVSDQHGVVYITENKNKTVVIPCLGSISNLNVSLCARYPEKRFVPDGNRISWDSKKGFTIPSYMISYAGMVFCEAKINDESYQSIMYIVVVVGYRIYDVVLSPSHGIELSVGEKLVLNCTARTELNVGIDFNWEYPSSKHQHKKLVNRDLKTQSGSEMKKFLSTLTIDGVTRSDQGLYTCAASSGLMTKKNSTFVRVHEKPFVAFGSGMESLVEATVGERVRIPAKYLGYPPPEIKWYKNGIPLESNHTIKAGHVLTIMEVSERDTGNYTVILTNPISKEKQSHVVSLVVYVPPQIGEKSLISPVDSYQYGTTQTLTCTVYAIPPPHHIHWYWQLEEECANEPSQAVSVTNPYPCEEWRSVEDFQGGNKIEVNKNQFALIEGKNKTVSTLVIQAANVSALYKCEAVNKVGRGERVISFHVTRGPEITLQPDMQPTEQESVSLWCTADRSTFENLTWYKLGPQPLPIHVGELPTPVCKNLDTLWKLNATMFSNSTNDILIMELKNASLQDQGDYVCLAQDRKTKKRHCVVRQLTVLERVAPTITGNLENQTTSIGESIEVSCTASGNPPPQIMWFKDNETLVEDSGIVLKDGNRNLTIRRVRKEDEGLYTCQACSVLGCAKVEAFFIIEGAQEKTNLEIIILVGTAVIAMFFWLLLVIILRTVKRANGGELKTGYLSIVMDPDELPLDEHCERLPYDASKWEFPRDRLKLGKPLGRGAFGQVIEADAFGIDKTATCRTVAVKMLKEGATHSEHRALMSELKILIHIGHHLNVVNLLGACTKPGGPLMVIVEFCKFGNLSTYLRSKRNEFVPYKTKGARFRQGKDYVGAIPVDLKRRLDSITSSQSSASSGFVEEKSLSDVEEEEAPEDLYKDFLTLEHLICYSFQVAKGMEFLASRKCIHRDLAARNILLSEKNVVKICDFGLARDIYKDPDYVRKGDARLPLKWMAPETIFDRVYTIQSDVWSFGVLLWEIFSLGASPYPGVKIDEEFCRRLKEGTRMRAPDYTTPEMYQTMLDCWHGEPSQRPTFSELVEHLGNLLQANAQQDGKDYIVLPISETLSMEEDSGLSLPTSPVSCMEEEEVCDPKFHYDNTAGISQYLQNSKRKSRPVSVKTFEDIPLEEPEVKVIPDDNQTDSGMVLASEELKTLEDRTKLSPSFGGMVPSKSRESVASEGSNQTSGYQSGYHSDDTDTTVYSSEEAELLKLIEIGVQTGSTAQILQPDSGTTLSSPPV

SMILES: O=C(Nc1ccc(F)cc1)C1(C(=O)Nc2ccc(Oc3ccnc4cc(-c5ccccc5)ccc34)cc2)CC1 [Compound 55, 1-N′-(4-Fluorophenyl)-1-N-[4-(7-phenylquinolin-4-yl)oxyphenyl]cyclopropane-1,1-dicarboxamide]
- IC50 [1]: 10 to 100 nM
- IC50 [2]: 100 to 300 nM

SMILES: Cc1cn(-c2ccc3c(Oc4ccc(NC(=O)C5(C(=O)Nc6ccc(F)cc6)CC5)cc4)ccnc3c2)cn1 [Compound 87, 1-N′-(4-Fluorophenyl)-1-N-[4-[7-(4-methylimidazol-1-yl)quinolin-4-yl]oxyphenyl]cyclopropane-1,1-dicarboxamide]
- IC50 [1]: ≤ 10 nM
- IC50 [2]: ≤ 10 nM

SMILES: Nc1n[nH]cc1-c1ccc2c(Oc3ccc(NC(=O)C4(C(=O)Nc5ccc(F)cc5)CC4)cc3)ccnc2c1 [Compound 90, 1-N-[4-[7-(3-Amino-1H-pyrazol-4-yl)quinolin-4-yl]oxyphenyl]-1-N′-(4-fluorophenyl)cyclopropane-1,1-dicarboxamide]
- IC50 [1]: 10 to 100 nM
- IC50 [2]: 10 to 100 nM

SMILES: Cc1ccn(-c2ccc3c(Oc4ccc(NC(=O)C5(C(=O)Nc6ccc(F)cc6)CC5)cc4)ccnc3c2)n1 [Compound 91, 1-N′-(4-Fluorophenyl)-1-N-[4-[7-(3-methylpyrazol-1-yl)quinolin-4-yl]oxyphenyl]cyclopropane-1,1-dicarboxamide]
- IC50 [1]: 100 to 300 nM
- IC50 [2]: 100 to 300 nM

SMILES: CC(=O)N1CCC(c2ccc3c(Oc4ccc(NC(=O)C5(C(=O)Nc6ccc(F)cc6)CC5)cc4)ccnc3c2)C1 (stereo not drawn) [Compound 92, 1-N-[4-[7-(1-Acetylpyrrolidin-3-yl)quinolin-4-yl]oxyphenyl]-1-N′-(4-fluorophenyl)cyclopropane-1,1-dicarboxamide]
- IC50 [1]: 100 to 300 nM
- IC50 [2]: 10 to 100 nM

SMILES: CS(=O)(=O)N1CCC(c2ccc3c(Oc4ccc(NC(=O)C5(C(=O)Nc6ccc(F)cc6)CC5)cc4)ccnc3c2)C1 (stereo not drawn) [Compound 93, 1-N′-(4-Fluorophenyl)-1-N-[4-[7-(1-methylsulfonylpyrrolidin-3-yl)quinolin-4-yl]oxyphenyl]cyclopropane-1,1-dicarboxamide]
- IC50 [1]: > 300 nM
- IC50 [2]: 100 to 300 nM

SMILES: O=C(Nc1ccc(F)cc1)C1(C(=O)Nc2ccc(Oc3ccnc4cc(-c5cnn(CF)c5)ccc34)cc2)CC1 [Compound 94, 1-N-[4-[7-[1-(Fluoromethyl)pyrazol-4-yl]quinolin-4-yl]oxyphenyl]-1-N′-(4-fluorophenyl)cyclopropane-1,1-dicarboxamide]
- IC50 [1]: ≤ 10 nM
- IC50 [2]: ≤ 10 nM

SMILES: O=C(Nc1ccc(F)cc1)C1(C(=O)Nc2ccc(Oc3ccnc4cc(C5=CCOC5)ccc34)cc2)CC1 [Compound 95, 1-N-[4-[7-(2,5-Dihydrofuran-3-yl)quinolin-4-yl]oxyphenyl]-1-N′-(4-fluorophenyl)cyclopropane-1,1-dicarboxamide]
- IC50 [1]: ≤ 10 nM
- IC50 [2]: 10 to 100 nM

SMILES: Cc1cnn(-c2ccc3c(Oc4ccc(NC(=O)C5(C(=O)Nc6ccc(F)cc6)CC5)cc4)ccnc3c2)c1 [Compound 96, 1-N′-(4-Fluorophenyl)-1-N-[4-[7-(4-methylpyrazol-1-yl)quinolin-4-yl]oxyphenyl]cyclopropane-1,1-dicarboxamide]
- IC50 [1]: 10 to 100 nM
- IC50 [2]: 100 to 300 nM

SMILES: Nc1cc(-c2ccc3c(Oc4ccc(NC(=O)C5(C(=O)Nc6ccc(F)cc6)CC5)cc4)ccnc3c2)ccn1 [Compound 97, 1-N-[4-[7-(2-Aminopyridin-4-yl)quinolin-4-yl]oxyphenyl]-1-N′-(4-fluorophenyl)cyclopropane-1,1-dicarboxamide]
- IC50 [1]: 10 to 100 nM
- IC50 [2]: 10 to 100 nM

SMILES: O=C(Nc1ccc(F)cc1)C1(C(=O)Nc2ccc(Oc3ccnc4cc(-c5ccn(C6CC6)n5)ccc34)cc2)CC1 [Compound 98, 1-N-[4-[7-(1-Cyclopropylpyrazol-3-yl)quinolin-4-yl]oxyphenyl]-1-N′-(4-fluorophenyl)cyclopropane-1,1-dicarboxamide]
- IC50 [1]: 10 to 100 nM
- IC50 [2]: 10 to 100 nM

SMILES: Cc1cc(-c2ccc3c(Oc4ccc(NC(=O)C5(C(=O)Nc6ccc(F)cc6)CC5)cc4)ccnc3c2)n[nH]1 [Compound 99, 1-N′-(4-Fluorophenyl)-1-N-[4-[7-(5-methyl-1H-pyrazol-3-yl)quinolin-4-yl]oxyphenyl]cyclopropane-1,1-dicarboxamide]
- IC50 [1]: ≤ 10 nM
- IC50 [2]: 10 to 100 nM

SMILES: Cc1cc(-c2ccc3c(Oc4ccc(NC(=O)C5(C(=O)Nc6ccc(F)cc6)CC5)cc4)ccnc3c2)nn1C [Compound 101, 1-N-[4-[7-(1,5-Dimethylpyrazol-3-yl)quinolin-4-yl]oxyphenyl]-1-N′-(4-fluorophenyl)cyclopropane-1,1-dicarboxamide]
- IC50 [1]: 10 to 100 nM
- IC50 [2]: 10 to 100 nM

SMILES: O=C(Nc1ccc(F)cc1)C1(C(=O)Nc2ccc(Oc3ccnc4cc(-c5ccn(CF)n5)ccc34)cc2)CC1 [Compound 102, 1-N-[4-[7-[1-(Fluoromethyl)pyrazol-3-yl]quinolin-4-yl]oxyphenyl]-1-N′-(4-fluorophenyl)cyclopropane-1,1-dicarboxamide]
- IC50 [1]: ≤ 10 nM
- IC50 [2]: 10 to 100 nM

SMILES: O=C(Nc1ccc(F)cc1)C1(C(=O)Nc2ccc(Oc3ccnc4cc(-c5cc6ccccn6n5)ccc34)cc2)CC1 [Compound 104, 1-N′-(4-Fluorophenyl)-1-N-[4-(7-pyrazolo[1,5-a]pyridin-2-ylquinolin-4-yl)oxyphenyl]cyclopropane-1,1-dicarboxamide]
- IC50 [1]: 10 to 100 nM
- IC50 [2]: 100 to 300 nM

SMILES: Cc1cc2c(Oc3cc(F)c(NC(=O)C4(C(=O)Nc5ccc(F)cc5)CC4)cc3F)ccnc2cc1-c1cnn(C)c1 [Compound 105, 1-N′-[2,5-Difluoro-4-[6-methyl-7-(1-methylpyrazol-4-yl)quinolin-4-yl]oxyphenyl]-1-N-(4-fluorophenyl)cyclopropane-1,1-dicarboxamide]
- IC50 [1]: 10 to 100 nM
- IC50 [2]: 10 to 100 nM

SMILES: Cc1cc2c(Oc3ccc(NC(=O)C4(C(=O)Nc5ccc(F)cc5)CC4)cc3)ccnc2cc1-c1cc[nH]n1 [Compound 107, 1-N′-(4-Fluorophenyl)-1-N-[4-[6-methyl-7-(1H-pyrazol-3-yl)quinolin-4-yl]oxyphenyl]cyclopropane-1,1-dicarboxamide]
- IC50 [1]: 10 to 100 nM
- IC50 [2]: 10 to 100 nM

SMILES: Cc1cc2c(Oc3ccc(NC(=O)C4(C(=O)Nc5ccc(F)cc5)CC4)cc3)ccnc2cc1-c1ccn(C)n1 [Compound 108, 1-N′-(4-Fluorophenyl)-1-N-[4-[6-methyl-7-(1-methylpyrazol-3-yl)quinolin-4-yl]oxyphenyl]cyclopropane-1,1-dicarboxamide]
- IC50 [1]: 10 to 100 nM
- IC50 [2]: 10 to 100 nM
